Measured values reported in patent publication US20250084056A1, “SUBSTITUTED OXOISOINDOLINYL PIPERIDINE-2,6-DIONE COMPOUNDS” (BRISTOL-MYERS SQUIBB COMPANY, priority 2023, published 2025).

Columns and labels:
Assay type in all cases: cell-based
[1] = system: Phospho-Rb (Ser807/811); assay: Phospho-Retinoblastoma (pRB) Cellular Assay; details: Homo sapiens, OVCAR-3, NIH OVCAR3 cells, 24 hours; for IC50: concentration giving 50% response; for Emax: maximum response, reference compound at 10 μM = 100%, read-out: pRB Ymax
Summary of the method: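 Phospho-Rb (Ser807/811) kit read-out on EnVision after lysis (≥4 h, room temperature, dark) of OVCAR3 cells exposed to compound dilutions for 24 h. IC50 and maximum response Ymax are relative to a 10 μM reference compound defining 100%.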

[2] = target: Cyclin E1 (Homo sapiens, UniProt P24864+Q96SW2); assay: Cyclin E1 Cellular Degradation Assay (MSD); parameters: endogenous in cells; host or cells: OVCAR3; details: for DC50 / Dmax: Cyclin E1 cellular degradation; for Dmax: maximum degradation; for Ratio of GSPT1 DC50/Cyclin E1 DC50: selectivity for degradation of Cyclin E1 over GSPT1
Summary of the method: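 Cyclin E1 remaining after 24 h compound exposure of OVCAR3 cells was quantified in lysates by electrochemiluminescent MSD sandwich assay. DC50 (50% response concentration) and Dmax (maximum response) were calculated, with 110% response set by a reference compound at […].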

[3] = target: GSPT1 (Homo sapiens, UniProt P15170+Q96SW2); assay: GSPT1 Cellular Degradation Assay (DF15-GSPT1-ePL); parameters: expressed in transfected cells; details: DF15-GSPT1-ePL cells, 20 hours
Summary of the method: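 DC50 and Dmax were derived from chemiluminescence, with 75% response set by the reference compound at […]. Readout was ePL enzyme-fragment complementation in a DF15 line expressing chimeric GSPT1. Cells were exposed to compound for 20 h at 37 °C in RPMI 1640 with 10% FBS, cooled 30 min, then lysed with substrate for 60 min.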

Chain of GSPT1 (P15170 whole entry, the tested form may be a part): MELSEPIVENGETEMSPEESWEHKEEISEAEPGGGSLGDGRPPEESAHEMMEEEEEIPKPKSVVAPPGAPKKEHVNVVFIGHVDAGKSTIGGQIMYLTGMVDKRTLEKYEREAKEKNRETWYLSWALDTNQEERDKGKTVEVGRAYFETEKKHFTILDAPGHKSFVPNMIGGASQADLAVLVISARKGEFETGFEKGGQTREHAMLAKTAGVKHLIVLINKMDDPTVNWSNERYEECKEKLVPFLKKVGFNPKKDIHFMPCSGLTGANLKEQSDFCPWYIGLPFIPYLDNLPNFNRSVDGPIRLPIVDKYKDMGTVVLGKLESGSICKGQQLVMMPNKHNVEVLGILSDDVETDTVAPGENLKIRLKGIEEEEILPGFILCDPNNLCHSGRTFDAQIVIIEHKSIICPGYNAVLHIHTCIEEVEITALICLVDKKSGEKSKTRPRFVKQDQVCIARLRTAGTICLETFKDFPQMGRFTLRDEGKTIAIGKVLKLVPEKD
Chain of GSPT1 (Q96SW2 whole entry, the tested form may be a part): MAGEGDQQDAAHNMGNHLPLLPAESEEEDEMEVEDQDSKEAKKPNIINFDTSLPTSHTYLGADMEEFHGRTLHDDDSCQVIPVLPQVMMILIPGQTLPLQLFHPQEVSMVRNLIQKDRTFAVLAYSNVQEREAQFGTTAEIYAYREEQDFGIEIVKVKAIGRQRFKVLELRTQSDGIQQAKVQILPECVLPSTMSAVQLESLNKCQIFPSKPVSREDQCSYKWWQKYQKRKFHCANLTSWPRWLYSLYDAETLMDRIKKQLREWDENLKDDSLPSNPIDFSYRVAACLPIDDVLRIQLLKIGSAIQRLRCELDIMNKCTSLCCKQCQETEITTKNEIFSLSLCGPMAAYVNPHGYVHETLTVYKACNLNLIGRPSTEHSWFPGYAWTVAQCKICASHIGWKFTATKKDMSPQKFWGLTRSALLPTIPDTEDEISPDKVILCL
Chain of GSPT1 (Q16531 whole entry partner, the tested form may be a part): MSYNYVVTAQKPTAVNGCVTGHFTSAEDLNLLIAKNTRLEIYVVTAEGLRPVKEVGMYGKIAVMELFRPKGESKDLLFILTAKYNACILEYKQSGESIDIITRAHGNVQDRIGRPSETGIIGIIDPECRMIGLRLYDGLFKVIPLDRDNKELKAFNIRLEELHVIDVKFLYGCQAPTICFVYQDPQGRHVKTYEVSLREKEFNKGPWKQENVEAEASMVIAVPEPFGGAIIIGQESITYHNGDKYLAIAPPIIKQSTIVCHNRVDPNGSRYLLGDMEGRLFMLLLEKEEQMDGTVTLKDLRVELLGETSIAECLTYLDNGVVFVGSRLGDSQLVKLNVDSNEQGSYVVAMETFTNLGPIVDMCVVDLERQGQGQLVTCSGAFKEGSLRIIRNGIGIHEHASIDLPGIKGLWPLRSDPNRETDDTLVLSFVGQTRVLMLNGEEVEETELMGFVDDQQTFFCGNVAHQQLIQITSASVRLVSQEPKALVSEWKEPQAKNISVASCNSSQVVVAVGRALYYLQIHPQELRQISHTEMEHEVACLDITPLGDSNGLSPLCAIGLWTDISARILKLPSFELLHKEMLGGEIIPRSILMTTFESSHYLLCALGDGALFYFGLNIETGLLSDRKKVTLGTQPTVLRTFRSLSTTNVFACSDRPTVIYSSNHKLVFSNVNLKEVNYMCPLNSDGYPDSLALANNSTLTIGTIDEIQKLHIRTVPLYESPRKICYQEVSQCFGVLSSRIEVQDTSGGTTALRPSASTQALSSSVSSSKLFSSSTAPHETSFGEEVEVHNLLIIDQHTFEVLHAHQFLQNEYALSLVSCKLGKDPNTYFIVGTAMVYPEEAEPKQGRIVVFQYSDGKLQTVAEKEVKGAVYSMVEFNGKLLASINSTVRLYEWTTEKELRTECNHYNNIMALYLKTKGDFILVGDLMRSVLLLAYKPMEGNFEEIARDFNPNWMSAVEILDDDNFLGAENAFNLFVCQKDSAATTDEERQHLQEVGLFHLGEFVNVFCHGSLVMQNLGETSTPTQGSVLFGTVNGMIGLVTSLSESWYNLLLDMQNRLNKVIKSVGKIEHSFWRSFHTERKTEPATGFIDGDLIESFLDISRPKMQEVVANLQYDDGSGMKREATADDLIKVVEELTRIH
Chain of Cyclin E1 (P24864 whole entry): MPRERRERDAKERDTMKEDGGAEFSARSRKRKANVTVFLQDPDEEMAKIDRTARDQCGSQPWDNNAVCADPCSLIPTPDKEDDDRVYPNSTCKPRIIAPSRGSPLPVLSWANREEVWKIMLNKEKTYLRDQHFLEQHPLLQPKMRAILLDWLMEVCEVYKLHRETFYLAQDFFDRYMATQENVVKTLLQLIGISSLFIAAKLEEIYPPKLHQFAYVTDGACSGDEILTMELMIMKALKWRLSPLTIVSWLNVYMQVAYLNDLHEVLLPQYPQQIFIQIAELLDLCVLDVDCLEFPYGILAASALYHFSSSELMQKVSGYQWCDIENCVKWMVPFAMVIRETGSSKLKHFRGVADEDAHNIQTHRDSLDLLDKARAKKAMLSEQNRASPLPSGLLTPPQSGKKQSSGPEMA
Chain of Cyclin E1 (Q96SW2 whole entry): as the sequence (Q96SW2 whole entry, the tested form may be a part) above
Chain of Cyclin E1 (Q16531 whole entry partner): as the sequence (Q16531 whole entry partner, the tested form may be a part) above

Row | SMILES | IC50 [1] [nM] | DC50 [2] [nM] | Dmax [2] [%] | Ratio of GSPT1 DC50/Cyclin E1 DC50 [2] | DC50 [3] [nM] | Dmax [3] [%] | Emax [1] [%]
1 | COc1c(COC(=O)Nc2ccc(Oc3cc(F)c(F)c(F)c3)cc2F)ccc2c1C(=O)N(C1CCC(=O)NC1=O)C2 (centres unmarked) [Example 15, [2-(2,6-dioxopiperidin-3-yl)-4-methoxy-3-oxo-2,3-dihydro-1H-isoindol-5-yl]methyl N-[2-fluoro-4-(3,4,5-trifluorophenoxy)phenyl]carbamate] | 127 | 35 | 109 | >395 | > 14000 | 48 | 109
2 | O=C1CCC(N2Cc3ccc(COC(=O)Nc4ccc(Oc5ccc(F)c(F)c5)cc4F)c(O[C@@H]4CCOC4)c3C2=O)C(=O)N1 (stereo partly drawn) [Example 154, [2-(2,6-dioxopiperidin-3-yl)-3-oxo-4-[(3R)-oxolan-3-yloxy]-2,3-dihydro-1H-isoindol-5-yl]methyl N-[4-(3,4-difluorophenoxy)-2-fluorophenyl]carbamate] | 225 | 147 | 100 | >95 | > 14000 | 26 | 123
3 | O=C1CCC(N2Cc3ccc(COC(=O)Nc4ccc(Oc5ccc(F)c(F)c5)cc4)c(OC4CCC4)c3C2=O)C(=O)N1 (centres unmarked) [Example 126, [4-cyclobutoxy-2-(2,6-dioxopiperidin-3-yl)-3-oxo-2,3-dihydro-1H-isoindol-5-yl]methyl N-[4-(3,4-difluorophenoxy)phenyl]carbamate] | 117 | 140 | 107 | >100 | > 14000 | 9 | 129
4 | O=C1CCC(N2Cc3ccc(COC(=O)Nc4ccc(Oc5ccc(F)c(F)c5)cc4)c(OC4CCOCC4)c3C2=O)C(=O)N1 (centres unmarked) [Example 130, [2-(2,6-dioxopiperidin-3-yl)-4-(oxan-4-yloxy)-3-oxo-2,3-dihydro-1H-isoindol-5-yl]methyl N-[4-(3,4-difluorophenoxy)phenyl]carbamate] | 22 | 19 | 106 | >738 | > 14000 | 19 | 119
5 | COc1c(COC(=O)Nc2ccc(Oc3ccc(F)cc3C)cc2C)ccc2c1C(=O)N(C1CCC(=O)NC1=O)C2 (centres unmarked) [Example 76, [2-(2,6-dioxopiperidin-3-yl)-4-methoxy-3-oxo-2,3-dihydro-1H-isoindol-5-yl]methyl N-[4-(4-fluoro-2-methylphenoxy)-2-methylphenyl]carbamate] | 104 | 267 | 111 | >52 | > 14000 | 33 | 122
6 | COc1c(COC(=O)Nc2ccc(Cc3ccc(F)c(F)c3)cc2C)ccc2c1C(=O)N(C1CCC(=O)NC1=O)C2 (centres unmarked) [Example 18, [2-(2,6-dioxopiperidin-3-yl)-4-methoxy-3-oxo-2,3-dihydro-1H-isoindol-5-yl]methyl N-{4-[(3,4-difluorophenyl)methyl]-2-methylphenyl}carbamate] | 85 | 89 | 100 | >157 | > 14000 | 13 | 110
7 | COCCOc1c(COC(=O)Nc2ccc(Oc3ccc(F)c(F)c3)cc2F)ccc2c1C(=O)N(C1CCC(=O)NC1=O)C2 (centres unmarked) [Example 169, [2-(2,6-dioxopiperidin-3-yl)-4-(2-methoxyethoxy)-3-oxo-2,3-dihydro-1H-isoindol-5-yl]methyl N-[4-(3,4-difluorophenoxy)-2-fluorophenyl]carbamate] | 36 | 88 | 104 | >159 | > 14000 | 7 | 120
8 | COc1c(COC(=O)Nc2ccc(Oc3ccc(F)cc3C(F)F)cc2)ccc2c1C(=O)N(C1CCC(=O)NC1=O)C2 (centres unmarked) [Example 89, [2-(2,6-dioxopiperidin-3-yl)-4-methoxy-3-oxo-2,3-dihydro-1H-isoindol-5-yl]methyl N-{4-[2-(difluoromethyl)-4-fluorophenoxy]phenyl}carbamate] | 159 | 289 | 101 | >48 | > 14000 | 42 | 108

Continued, in another order:

Row | IC50 [1] [nM] | DC50 [2] [nM] | Dmax [2] [%] | Ratio of GSPT1 DC50/Cyclin E1 DC50 [2] | DC50 [3] [nM] | Dmax [3] [%] | SMILES | Emax [1] [%]
9 | 624 | 58 | 116 | >241 | > 14000 | 22 | CCOc1c(COC(=O)Nc2ccc(Oc3cccc(Cl)c3)cc2)ccc2c1C(=O)N(C1CCC(=O)NC1=O)C2 (centres unmarked) [Example 54, [2-(2,6-dioxopiperidin-3-yl)-4-ethoxy-3-oxo-2,3-dihydro-1H-isoindol-5-yl]methyl N-[4-(3-chlorophenoxy)phenyl]carbamate] | 102
10 | 25 | 75 | 118 | >187 | > 14000 | 2 | CC(C)(O)COc1c(COC(=O)Nc2ccc(Oc3cc(F)cc(F)c3)cc2F)ccc2c1C(=O)N(C1CCC(=O)NC1=O)C2 (centres unmarked) [Example 164, [2-(2,6-dioxopiperidin-3-yl)-4-(2-hydroxy-2-methylpropoxy)-3-oxo-2,3-dihydro-1H-isoindol-5-yl]methyl N-[4-(3,5-difluorophenoxy)-2-fluorophenyl]carbamate] | 142
11 | 24 | 27 | 107 | >521 | > 14000 | 8 | CC(C)(O)COc1c(COC(=O)Nc2ccc(Oc3ccc(F)cc3)cc2F)ccc2c1C(=O)N(C1CCC(=O)NC1=O)C2 (centres unmarked) [Example 162, [2-(2,6-dioxopiperidin-3-yl)-4-(2-hydroxy-2-methylpropoxy)-3-oxo-2,3-dihydro-1H-isoindol-5-yl]methyl N-[2-fluoro-4-(4-fluorophenoxy)phenyl]carbamate] | 133
12 | 118 | 79 | 100 | >177 | > 14000 | 6 | O=C1CCC(N2Cc3ccc(COC(=O)Nc4ccc(Oc5ccc(F)c(F)c5)cc4)c(Oc4cccnc4)c3C2=O)C(=O)N1 (centres unmarked) [Example 172, [2-(2,6-dioxopiperidin-3-yl)-3-oxo-4-(pyridin-3-yloxy)-2,3-dihydro-1H-isoindol-5-yl]methyl N-[4-(3,4-difluorophenoxy)phenyl]carbamate] | 120
13 | 2310 | 735 | 83 | 9 | 6600 | 64 | COc1ccccc1Oc1ccc(NC(=O)OCc2ccc3c(c2OC)C(=O)N(C2CCC(=O)NC2=O)C3)cc1 (centres unmarked) [Example 31, [2-(2,6-dioxopiperidin-3-yl)-4-methoxy-3-oxo-2,3-dihydro-1H-isoindol-5-yl]methyl N-[4-(2-methoxyphenoxy)phenyl]carbamate] | 81
14 | 1780 | 203 | 90 | >69 | > 14000 | 21 | COc1c(COC(=O)Nc2ccc(C3(c4ccccc4)CC3)cc2)ccc2c1C(=O)N(C1CCC(=O)NC1=O)C2 (centres unmarked) [Example 7, [2-(2,6-dioxopiperidin-3-yl)-4-methoxy-3-oxo-2,3-dihydro-1H-isoindol-5-yl]methyl N-[4-(1-phenylcyclopropyl)phenyl]carbamate] | 10
15 | 117 | 181 | 105 | >77 | > 14000 | 35 | COc1c(COC(=O)Nc2ccc(Oc3ccccc3C(F)F)cc2)ccc2c1C(=O)N(C1CCC(=O)NC1=O)C2 (centres unmarked) [Example 85, [2-(2,6-dioxopiperidin-3-yl)-4-methoxy-3-oxo-2,3-dihydro-1H-isoindol-5-yl]methyl N-{4-[2-(difluoromethyl)phenoxy]phenyl}carbamate] | 98
16 | 676 | 98 | 102 | >143 | > 14000 | 33 | O=C1CCC(N2Cc3ccc(COC(=O)Nc4ccc(Oc5ccccc5)cc4)c(Oc4ccccc4)c3C2=O)C(=O)N1 (centres unmarked) [Example 62, [2-(2,6-dioxopiperidin-3-yl)-3-oxo-4-phenoxy-2,3-dihydro-1H-isoindol-5-yl]methyl N-(4-phenoxyphenyl)carbamate] | 94
17 | 86 | 148 | 107 | >95 | > 14000 | 22 | COc1c(COC(=O)Nc2ccc(Oc3ccc(F)cc3Cl)cc2C)ccc2c1C(=O)N(C1CCC(=O)NC1=O)C2 (centres unmarked) [Example 103, [2-(2,6-dioxopiperidin-3-yl)-4-methoxy-3-oxo-2,3-dihydro-1H-isoindol-5-yl]methyl N-[4-(2-chloro-4-fluorophenoxy)-2-methylphenyl]carbamate] | 100
